From PubChem BioAssay (NCI) come the findings set out here.

Among the test systems are OVCAR-3 ovarian; KM12 colon; HCC-2998 colon; ACHN renal; UO-31 renal; A498 renal; NCI-H460 lung; COLO 205 colon; SF-539 CNS; NCI-H23 lung.
Common to all, as to assay: NCI anticancer screen, dose series, 48 h

SMILES strings stand for the structures. In brackets after ≈: the same amount, converted by molar mass. Several values for one entry are separate records, joined by “and”; a condition that tells them apart may be missing. Identical values can stand only once.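 Where inhibition never reached the appropriate level, the endpoint shown equals the highest concentration tested. Otherwise, values were interpolated linearly from a five-concentration, 48-hour dose response in 96-well plates. Here, GI50 denotes the concentration required for 50% inhibition of growth. TGI: concentration producing complete growth inhibition.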

Turning to `CC1/C=C/C=C/CC/C=C/C=C/C=C/C=C/C(OC2OC(C)C(O)C(N)C2O)CC2OC(CC(O)C(O)CCC(O)CC(O)CC(O)CC(=O)OC(C)C(C)C1O)CC(O)C2C(=O)O` (stereo not given), the GI50 with OVCAR-3 ovarian is 101 µg/mL (≈ 111 µM); in the assay with KM12 colon, 53 µg/mL (≈ 58.2 µM); in the assay on HCC-2998 colon, 19.1 µg/mL (≈ 21 µM); in the assay on ACHN renal, 22.8 µg/mL (≈ 25 µM); in the assay on UO-31 renal it was 20 µg/mL (≈ 21.9 µM); in the assay with A498 renal, 25.8 µg/mL (≈ 28.3 µM). In addition, the GI50 with NCI-H460 lung is 30.4 µg/mL (≈ 33.4 µM); with COLO 205 colon, 81.7 µg/mL (≈ 89.8 µM); with SF-539 CNS it was 28 µg/mL (≈ 30.8 µM); in the assay with NCI-H23 lung, 25.7 µg/mL (≈ 28.2 µM). The TGI with OVCAR-3 ovarian is 37.2 µM and 150 µg/mL; with KM12 colon it was 61.5 µM and 150 µg/mL; in the assay with HCC-2998 colon, 30.8 µM and 44.6 µg/mL; in the assay on ACHN renal it was 32.3 µM and 42.7 µg/mL; in the assay on UO-31 renal, 35.8 µM and 40.6 µg/mL; in the assay on A498 renal, 33.2 µM and 46.5 µg/mL. In addition, the TGI was 39.7 µM and 87.7 µg/mL in the assay with NCI-H460 lung; 56.8 µM and 150 µg/mL with COLO 205 colon; 32.3 µM and 64.1 µg/mL with SF-539 CNS; 35.6 µM and 50.3 µg/mL in the assay on NCI-H23 lung.

Consider `COC1CCC2C(=O)CCCC2O1` (stereo not given), for which the TGI in the assay on OVCAR-3 ovarian, in the assay on KM12 colon, in the assay with HCC-2998 colon, with ACHN renal, with UO-31 renal and in the assay on A498 renal was above 100 µM throughout. Also, the TGI in the assay on NCI-H460 lung, with COLO 205 colon, with SF-539 CNS and with NCI-H23 lung was above 100 µM throughout.

As for `O=c1oc2ccccc2cc1-c1ccc([N+](=O)[O-])cc1`, the TGI with OVCAR-3 ovarian, in the assay with KM12 colon, in the assay with HCC-2998 colon, in the assay with ACHN renal, with UO-31 renal and with A498 renal was above 100 µM each time. Besides, the TGI with NCI-H460 lung, with COLO 205 colon, in the assay on SF-539 CNS and with NCI-H23 lung was above 100 µM throughout.

`C=C1C(=O)OC2C1C(OC(=O)/C(C)=C/C)CC(O)(CCl)C1C(OC(C)=O)C=C(C)C21O` (stereo not given): the TGI in the assay with OVCAR-3 ovarian is 23.4 µM; in the assay with KM12 colon, 39.5 µM; in the assay with HCC-2998 colon, 31.9 µM; in the assay on ACHN renal it was 22.7 µM; with UO-31 renal it was 35 µM; with A498 renal, above 53.6 µM. The TGI is 46.1 µM in the assay on NCI-H460 lung, 24.3 µM with COLO 205 colon, 41 µM in the assay on SF-539 CNS and 34.1 µM in the assay with NCI-H23 lung.

In the case of `CCCCCCC(O)C/C=C/CCCCCC/C(C(=O)OC)=C(/O)C(=O)OCC` (stereo not given), the TGI in the assay with OVCAR-3 ovarian, in the assay with KM12 colon, in the assay with HCC-2998 colon, in the assay with ACHN renal, in the assay on UO-31 renal and in the assay with A498 renal was above 100 µM throughout. The TGI in the assay on NCI-H460 lung, in the assay with COLO 205 colon, in the assay on SF-539 CNS and in the assay on NCI-H23 lung was above 100 µM throughout.

On to `COc1c2c(c(OC)c3c(=O)cc(C/C(=N/NC(=O)C[n+]4ccccc4)C(=O)Nc4cc(C)ccc4C)oc13)OCO2`, for which the TGI in the assay on OVCAR-3 ovarian, in the assay on KM12 colon, in the assay with HCC-2998 colon, in the assay with ACHN renal, in the assay with UO-31 renal and in the assay on A498 renal was above 100 µM each time. Besides, the TGI in the assay with NCI-H460 lung, with COLO 205 colon, in the assay with SF-539 CNS and in the assay with NCI-H23 lung was above 100 µM in each case.
